{"source": "patent US9688710B2", "about": "“Inhibitors of sodium glucose cotransporter 1” (LEXICON PHARMACEUTICALS, INC., priority 2012, dated 2017)", "key": {"[1]": {"molecular_target": "Human sodium/glucose co-transporter type 2 (SGLT2) (Homo sapiens (Human), UniProt P31639)", "sequence (P31639 whole entry)": "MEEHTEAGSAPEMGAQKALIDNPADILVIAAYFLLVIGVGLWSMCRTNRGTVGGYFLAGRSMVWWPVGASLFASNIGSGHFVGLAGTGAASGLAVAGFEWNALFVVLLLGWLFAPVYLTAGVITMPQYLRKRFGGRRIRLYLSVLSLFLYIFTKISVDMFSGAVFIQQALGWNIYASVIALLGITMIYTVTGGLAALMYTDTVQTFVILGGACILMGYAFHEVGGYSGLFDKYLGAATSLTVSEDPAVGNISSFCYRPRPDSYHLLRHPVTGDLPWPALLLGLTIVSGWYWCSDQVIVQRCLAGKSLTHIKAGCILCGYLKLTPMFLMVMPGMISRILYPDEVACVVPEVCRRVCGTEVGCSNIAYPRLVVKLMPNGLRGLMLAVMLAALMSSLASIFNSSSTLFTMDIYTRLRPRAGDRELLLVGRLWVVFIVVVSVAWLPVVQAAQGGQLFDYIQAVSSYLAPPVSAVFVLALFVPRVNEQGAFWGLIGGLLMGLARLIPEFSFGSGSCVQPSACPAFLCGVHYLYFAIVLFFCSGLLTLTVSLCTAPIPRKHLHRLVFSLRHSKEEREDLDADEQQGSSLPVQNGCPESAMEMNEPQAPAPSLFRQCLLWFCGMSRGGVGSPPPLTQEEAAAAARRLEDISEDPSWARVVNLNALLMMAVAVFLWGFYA", "assay": "In vitro human SGLT2 inhibition assay (14C-AMG uptake)", "type": "cell-based", "parameters": "key to SGLT2 (human SGLT2 IC50): ***: a value less than 0.01 μM; **: a value less than 0.1 μM; *: a value less than 1 μM; —: a value not measured or exceeding μM", "conditions": "HEK293 cells expressing human HA-SGLT2, 14C-AMG uptake", "how_it_was_run": "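Uptake of 14C-AMG (100 nCi) was followed in a stable HEK293 HA-SGLT2 line over 1-2 h at 37 °C with or without compound. Buffer: 140 mM NaCl, 10 mM HEPES, 5 mM Tris, 1 mg/mL BSA, pH 7.3. Readout was scintillation counting after washing.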"}, "[2]": {"molecular_target": "Human sodium/glucose co-transporter type 1 (SGLT1) (Homo sapiens (Human), UniProt P13866)", "sequence (P13866 whole entry)": "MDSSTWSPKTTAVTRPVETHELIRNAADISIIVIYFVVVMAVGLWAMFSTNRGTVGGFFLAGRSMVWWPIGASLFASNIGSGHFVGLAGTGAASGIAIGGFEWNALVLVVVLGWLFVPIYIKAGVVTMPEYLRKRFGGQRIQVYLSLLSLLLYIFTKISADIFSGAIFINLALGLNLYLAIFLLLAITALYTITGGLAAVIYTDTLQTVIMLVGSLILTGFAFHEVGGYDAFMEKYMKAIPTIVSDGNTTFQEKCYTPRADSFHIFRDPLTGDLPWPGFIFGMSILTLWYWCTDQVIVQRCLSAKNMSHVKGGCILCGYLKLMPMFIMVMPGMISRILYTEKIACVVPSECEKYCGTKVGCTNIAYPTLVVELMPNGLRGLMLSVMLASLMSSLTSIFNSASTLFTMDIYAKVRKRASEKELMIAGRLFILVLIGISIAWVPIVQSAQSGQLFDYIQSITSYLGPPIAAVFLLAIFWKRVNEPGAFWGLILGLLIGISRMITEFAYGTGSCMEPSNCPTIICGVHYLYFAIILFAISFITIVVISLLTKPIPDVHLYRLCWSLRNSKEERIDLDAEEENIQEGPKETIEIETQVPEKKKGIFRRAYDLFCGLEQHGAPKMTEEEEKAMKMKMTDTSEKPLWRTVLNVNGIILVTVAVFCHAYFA", "assay": "In vitro human SGLT1 inhibition assay (14C-AMG uptake)", "type": "cell-based", "parameters": "key to SGLT1 (human SGLT1 IC50): ***: a value less than 0.01 μM; **: a value less than 0.1 μM; *: a value less than 1 μM; —: a value not measured or exceeding μM", "conditions": "HEK293 cells expressing human HA-SGLT1, 14C-AMG uptake", "how_it_was_run": "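Uptake of 14C-AMG (100 nCi) was measured by scintillation counting after 1–2 h at 37 °C, 5% CO2, with or without compound. The buffer was pH 7.3 with 140 mM NaCl, 1 mM CaCl2, 1 mM MgCl2 and 1 mg/mL BSA. Cells were a stable HEK293 line carrying HA-SGLT1 (human), plated overnight at 30,000 per well.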"}}}
{"smiles": "CNC(=O)C(C)(C)NC(=O)CCCc1ccc(Cc2cc([C@@H]3O[C@H](SC)[C@@H](O)[C@H](O)[C@H]3O)ccc2C)cc1", "note": "[N-(2-methyl-1-(methylamino)-1-oxopropan-2-yl)-4-(4-(2-methyl-5-((2S,3R,4R,5S,6R)-3,4,5-trihydroxy-6-(methylthio)tetrahydro-2H-pyran-2-yl)benzyl)phenyl)butanamide]", "values": [{"measurement": "IC50", "setting": "[1]", "result": "< 10", "unit": "nM"}, {"measurement": "IC50", "setting": "[2]", "result": "< 10", "unit": "nM"}]}
{"smiles": "CS[C@H]1O[C@@H](c2ccc(C)c(Cc3ccc(OCCCC(=O)NC(C)(C)C(=O)N4CCOCC4)cc3)c2)[C@H](O)[C@@H](O)[C@@H]1O", "note": "[N-(2-methyl-1-morpholino-1-oxopropan-2-yl)-4-(4-(2-methyl-5-((2S,3R,4R,5S,6R)-3,4,5-trihydroxy-6-(methylthio)tetrahydro-2H-pyran-2-yl)benzyl)phenoxy)butanamide]", "values": [{"measurement": "IC50", "setting": "[1]", "result": "< 10", "unit": "nM"}, {"measurement": "IC50", "setting": "[2]", "result": "< 10", "unit": "nM"}]}
{"smiles": "CS[C@H]1O[C@@H](c2ccc(C)c(Cc3ccc(CCCC(=O)NC(C)(C)C(=O)N4CCOCC4)cc3)c2)[C@H](O)[C@@H](O)[C@@H]1O", "note": "[N-(2-methyl-1-morpholino-1-oxopropan-2-yl)-4-(4-(2-methyl-5-((2S,3R,4R,5S,6R)-3,4,5-trihydroxy-6-(methylthio)tetrahydro-2H-pyran-2-yl)benzyl)phenyl)butanamide]", "values": [{"measurement": "IC50", "setting": "[1]", "result": "< 10", "unit": "nM"}, {"measurement": "IC50", "setting": "[2]", "result": "< 10", "unit": "nM"}]}
{"smiles": "CS[C@H]1O[C@@H](c2ccc(C)c(Cc3ccc(CCCC(=O)NC(C)(C)C(=O)N4CCNCC4)cc3)c2)[C@H](O)[C@@H](O)[C@@H]1O", "note": "[N-(2-methyl-1-oxo-1-(piperazin-1-yl)propan-2-yl)-4-(4-(2-methyl-5-((2S,3R,4R,5S,6R)-3,4,5-trihydroxy-6-(methylthio)tetrahydro-2H-pyran-2-yl)benzyl)phenyl)butanamide]", "values": [{"measurement": "IC50", "setting": "[1]", "result": "< 10", "unit": "nM"}, {"measurement": "IC50", "setting": "[2]", "result": "< 10", "unit": "nM"}]}
{"smiles": "CS[C@H]1O[C@@H](c2ccc(C)c(Cc3ccc(OCCCC(=O)NC(C)(C)C(=O)NC4CCNCC4)cc3)c2)[C@H](O)[C@@H](O)[C@@H]1O", "note": "[N-(2-methyl-1-oxo-1-(piperidin-4-ylamino)propan-2-yl)-4-(4-(2-methyl-5-((2S,3R,4R,5S,6R)-3,4,5-trihydroxy-6-(methylthio)tetrahydro-2H-pyran-2-yl)benzyl)phenoxy)butanamide]", "values": [{"measurement": "IC50", "setting": "[1]", "result": "< 10", "unit": "nM"}, {"measurement": "IC50", "setting": "[2]", "result": "< 10", "unit": "nM"}]}
{"smiles": "CS[C@H]1O[C@@H](c2ccc(C)c(Cc3ccc(CCCC(=O)NC(C)(C)C(=O)NC4CCNCC4)cc3)c2)[C@H](O)[C@@H](O)[C@@H]1O", "note": "[N-(2-methyl-1-oxo-1-(piperidin-4-ylamino)propan-2-yl)-4-(4-(2-methyl-5-((2S,3R,4R,5S,6R)-3,4,5-trihydroxy-6-(methylthio)tetrahydro-2H-pyran-2-yl)benzyl)phenyl)butanamide]", "values": [{"measurement": "IC50", "setting": "[1]", "result": "< 10", "unit": "nM"}, {"measurement": "IC50", "setting": "[2]", "result": "< 10", "unit": "nM"}]}
{"smiles": "CS[C@H]1O[C@@H](c2ccc(Cl)c(Cc3ccc(OCCCNC(=O)C(C)(C)CO)cc3)c2)[C@H](O)[C@@H](O)[C@@H]1O", "note": "[N-(3-(4-(2-chloro-5-((2S,3R,4R,5S,6R)-3,4,5-trihydroxy-6-(methylthio)tetrahydro-2H-pyran-2-yl)benzyl)phenoxy)propyl)-3-hydroxy-2,2-dimethylpropanamide]", "values": [{"measurement": "IC50", "setting": "[1]", "result": "< 10", "unit": "nM"}, {"measurement": "IC50", "setting": "[2]", "result": "< 100", "unit": "nM"}]}
{"smiles": "CS[C@H]1O[C@@H](c2ccc(C)c(Cc3ccc(CCCC(=O)NCC(C)(C)C(=O)N(C)CCN(C)C)cc3)c2)[C@H](O)[C@@H](O)[C@@H]1O", "note": "[N-(3-((2-(dimethylamino)ethyl)(methyl)amino)-2,2-dimethyl-3-oxopropyl)-4-(4-(2-methyl-5-((2S,3R,4R,5S,6R)-3,4,5-trihydroxy-6-(methylthio)tetrahydro-2H-pyran-2-yl)benzyl)phenyl)butanamide]", "values": [{"measurement": "IC50", "setting": "[1]", "result": "< 100", "unit": "nM"}, {"measurement": "SGLT1 (human SGLT1 IC50)", "setting": "[2]", "result": "—"}]}
{"smiles": "CS[C@H]1O[C@@H](c2ccc(Cl)c(Cc3ccc(OCCCC(=O)NCC(C)(C)C(N)=O)cc3)c2)[C@H](O)[C@@H](O)[C@@H]1O", "note": "[N-(3-amino-2,2-dimethyl-3-oxopropyl)-4-(4-(2-chloro-5-((2S,3R,4R,5S,6R)-3,4,5-trihydroxy-6-(methylthio)tetrahydro-2H-pyran-2-yl)benzyl)phenoxy)butanamide]", "values": [{"measurement": "IC50", "setting": "[1]", "result": "< 10", "unit": "nM"}, {"measurement": "IC50", "setting": "[2]", "result": "< 100", "unit": "nM"}]}
{"smiles": "CS[C@H]1O[C@@H](c2ccc(C)c(Cc3ccc(OCCCC(=O)NCC(C)(C)C(N)=O)cc3)c2)[C@H](O)[C@@H](O)[C@@H]1O", "note": "[N-(3-amino-2,2-dimethyl-3-oxopropyl)-4-(4-(2-methyl-5-((2S,3R,4R,5S,6R)-3,4,5-trihydroxy-6-(methylthio)tetrahydro-2H-pyran-2-yl)benzyl)phenoxy)butanamide]", "values": [{"measurement": "IC50", "setting": "[1]", "result": "< 10", "unit": "nM"}, {"measurement": "IC50", "setting": "[2]", "result": "< 100", "unit": "nM"}]}
{"smiles": "CCC(=O)NCCCCc1ccc(Cc2cc([C@@H]3O[C@H](SC)[C@@H](O)[C@H](O)[C@H]3O)ccc2C)cc1", "note": "[N-(4-(4-(2-methyl-5-((2S,3R,4R,5S,6R)-3,4,5-trihydroxy-6-(methylthio)tetrahydro-2H-pyran-2-yl)benzyl)phenyl)butyl)propionamide]", "values": [{"measurement": "IC50", "setting": "[1]", "result": "< 10", "unit": "nM"}, {"measurement": "IC50", "setting": "[2]", "result": "< 10", "unit": "nM"}]}
{"smiles": "CS[C@H]1O[C@@H](c2ccc(C)c(Cc3ccc(OCCCC(=O)N[C@H](C)C(N)=O)cc3)c2)[C@H](O)[C@@H](O)[C@@H]1O", "note": "[N-((R)-1-amino-1-oxopropan-2-yl)-4-(4-(2-methyl-5-((2S,3R,4R,5S,6R)-3,4,5-trihydroxy-6-(methylthio)tetrahydro-2H-pyran-2-yl)benzyl)phenoxy)butanamide]", "values": [{"measurement": "IC50", "setting": "[1]", "result": "< 10", "unit": "nM"}, {"measurement": "IC50", "setting": "[2]", "result": "< 10", "unit": "nM"}]}
{"smiles": "CS[C@H]1O[C@@H](c2ccc(C)c(Cc3ccc(OCCCC(=O)N[C@@H](C)C(N)=O)cc3)c2)[C@H](O)[C@@H](O)[C@@H]1O", "note": "[N-((S)-1-amino-1-oxopropan-2-yl)-4-(4-(2-methyl-5-((2S,3R,4R,5S,6R)-3,4,5-trihydroxy-6-(methylthio)tetrahydro-2H-pyran-2-yl)benzyl)phenoxy)butanamide]", "values": [{"measurement": "IC50", "setting": "[1]", "result": "< 10", "unit": "nM"}, {"measurement": "IC50", "setting": "[2]", "result": "< 100", "unit": "nM"}]}
{"smiles": "CS[C@H]1O[C@@H](c2ccc(Cl)c(Cc3ccc(OCCCC(=O)N[C@@H](CO)C(N)=O)cc3)c2)[C@H](O)[C@@H](O)[C@@H]1O", "note": "[N-((S)-1-amino-3-hydroxy-1-oxopropan-2-yl)-4-(4-(2-chloro-5-((2S,3R,4R,5S,6R)-3,4,5-trihydroxy-6-(methylthio)tetrahydro-2H-pyran-2-yl)benzyl)phenoxy)butanamide]", "values": [{"measurement": "IC50", "setting": "[1]", "result": "< 10", "unit": "nM"}, {"measurement": "IC50", "setting": "[2]", "result": "< 100", "unit": "nM"}]}
{"smiles": "CS[C@H]1O[C@@H](c2ccc(C)c(Cc3ccc(OCCCC(=O)N[C@@H](CO)C(N)=O)cc3)c2)[C@H](O)[C@@H](O)[C@@H]1O", "note": "[N-((S)-1-amino-3-hydroxy-1-oxopropan-2-yl)-4-(4-(2-methyl-5-((2S,3R,4R,5S,6R)-3,4,5-trihydroxy-6-(methylthio)tetrahydro-2H-pyran-2-yl)benzyl)phenoxy)butanamide]", "values": [{"measurement": "IC50", "setting": "[1]", "result": "< 10", "unit": "nM"}, {"measurement": "IC50", "setting": "[2]", "result": "< 100", "unit": "nM"}]}
{"smiles": "CCNC(=O)CCCOc1ccc(Cc2cc([C@@H]3O[C@H](SC)[C@@H](O)[C@H](O)[C@H]3O)ccc2C)cc1", "note": "[N-ethyl-4-(4-(2-methyl-5-((2S,3R,4R,5S,6R)-3,4,5-trihydroxy-6-(methylthio)tetrahydro-2H-pyran-2-yl)benzyl)phenoxy)butanamide]", "values": [{"measurement": "IC50", "setting": "[1]", "result": "< 10", "unit": "nM"}, {"measurement": "IC50", "setting": "[2]", "result": "< 10", "unit": "nM"}]}
{"smiles": "COC(=O)CCCOc1ccc(Cc2cc([C@@H]3O[C@H](SC)[C@@H](O)[C@H](O)[C@H]3O)ccc2Cl)cc1", "note": "[methyl 4-(4-(2-chloro-5-((2S,3R,4R,5S,6R)-3,4,5-trihydroxy-6-(methylthio)tetrahydro-2H-pyran-2-yl)benzyl)phenoxy)butanoate]", "values": [{"measurement": "SGLT2 (human SGLT2 IC50)", "setting": "[1]", "result": "—"}, {"measurement": "SGLT1 (human SGLT1 IC50)", "setting": "[2]", "result": "—"}]}
